Measurements: patent publication US20040156869A1, “2-substituted quinazolin-4-ylamine analogues” (Neurogen Corporation, priority 2002, published 2004)
pKi: −log10 of the molar value.

Biological target: human capsaicin receptor (VR1) (Homo sapiens, UniProt Q8NER1)
Assay: Capsaicin receptor binding assay ([3H]RTX competition, VR1-transfected HEK293 membranes)

Chain of human capsaicin receptor (VR1) (Q8NER1 whole entry): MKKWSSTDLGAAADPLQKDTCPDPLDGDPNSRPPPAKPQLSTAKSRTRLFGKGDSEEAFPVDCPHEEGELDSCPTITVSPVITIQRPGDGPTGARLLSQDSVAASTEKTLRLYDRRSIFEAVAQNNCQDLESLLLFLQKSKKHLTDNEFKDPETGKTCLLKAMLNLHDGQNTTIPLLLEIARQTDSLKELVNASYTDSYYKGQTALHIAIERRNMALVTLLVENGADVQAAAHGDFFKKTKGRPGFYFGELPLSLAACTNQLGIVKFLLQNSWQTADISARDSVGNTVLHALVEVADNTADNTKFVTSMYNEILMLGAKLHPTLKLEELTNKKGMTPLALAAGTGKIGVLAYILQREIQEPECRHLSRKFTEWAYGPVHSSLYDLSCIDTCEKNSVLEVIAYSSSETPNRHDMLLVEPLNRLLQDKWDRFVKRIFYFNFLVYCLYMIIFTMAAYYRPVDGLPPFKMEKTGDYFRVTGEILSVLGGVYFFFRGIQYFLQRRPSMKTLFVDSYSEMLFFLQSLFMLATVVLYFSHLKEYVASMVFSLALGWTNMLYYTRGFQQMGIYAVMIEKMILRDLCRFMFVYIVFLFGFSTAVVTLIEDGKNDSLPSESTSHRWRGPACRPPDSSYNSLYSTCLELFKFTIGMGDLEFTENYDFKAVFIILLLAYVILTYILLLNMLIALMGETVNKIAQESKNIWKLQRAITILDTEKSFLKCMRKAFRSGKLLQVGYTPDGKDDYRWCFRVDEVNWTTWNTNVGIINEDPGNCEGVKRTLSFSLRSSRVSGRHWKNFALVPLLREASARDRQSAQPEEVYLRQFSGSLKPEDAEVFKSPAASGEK

Row | pKi | SMILES
1 | > 6.00 | CCCCCCN(C)Cc1nc(Nc2ccc(C(F)(F)F)nc2)c2ccc(-c3ncccc3C(F)(F)F)cc2n1 [Compound 376, [2-[(Hexyl-methyl-ainino)-methyl]-7-(3-trifluoromethyl-pyridin-2-yl)-quinazolin-4-yl]-(6-trifluoromethyl-pyridin-3-yl)-amine]
2 | > 6.00 | CCCCN(CCCC)Cc1nc(Nc2ccc(C(F)(F)F)nc2)c2ccc(-c3ncccc3C(F)(F)F)cc2n1 [Compound 377, [2-Dibutylaminomethyl-7-(3-trifluoromethyl-pyridin-2-yl)-quinazolin-4-yl]-(6-trifluoromethyl-pyridin-3-yl)-amine]
3 | > 6.00 | CC(C)N(C)Cc1nc(Nc2ccc(C(F)(F)F)nc2)c2ccc(-c3ncccc3C(F)(F)F)cc2n1 [Compound 378, [2-[(Isopropyl-methyl-amino)-methyl]-7-(3-trifluoromethyl-pyridin-2-yl)-quinazolin-4-yl]-(6-trifluoromethyl-pyridin-3-yl)-amine]
4 | > 6.00 | CC1CCCCN1Cc1nc(Nc2ccc(C(F)(F)F)nc2)c2ccc(-c3ncccc3C(F)(F)F)cc2n1 (stereo not drawn) [Compound 379, [2-(2-Methyl-piperidin-1-ylmethyl)-7-(3-trifluoromethyl-pyridin-2-yl)-quinazolin-4-yl]-(6-trifluoromethyl-pyridin-3-yl)-amine]
5 | > 6.00 | C=C(C)CN(CC)Cc1nc(Nc2ccc(C(F)(F)F)nc2)c2ccc(-c3ncccc3C(F)(F)F)cc2n1 [Compound 380, [2-{[Ethyl-(2-methyl-allyl)-amino]-methyl}-7-(3-trifluoromethyl-pyridin-2-yl)-quinazolin-4-yl]-(6-trifluoromethyl-pyridin-3-yl)-amine]
6 | > 6.00 | CN(Cc1nc(Nc2ccc(C(F)(F)F)nc2)c2ccc(-c3ncccc3C(F)(F)F)cc2n1)C1CCCCC1 [Compound 381, [2-[(Cyclohexyl-methyl-amino)-methyl]-7-(3-trifluoromethyl-pyridin-2-yl)-quinazolin-4-yl]-(6-trifluoromethyl-pyridin-3-yl)-amine]
7 | > 6.00 | CCC1CCCCN1Cc1nc(Nc2ccc(C(F)(F)F)nc2)c2ccc(-c3ncccc3C(F)(F)F)cc2n1 (stereo not drawn) [Compound 382, [2-(2-Ethyl-piperidin-1-ylmethyl)-7-(3-trifluoromethyl-pyridin-2-yl)-quinazolin-4-yl]-(6-trifluoromethyl-pyridin-3-yl)-amine]
8 | > 6.00 | CCN(Cc1nc(Nc2ccc(C(F)(F)F)nc2)c2ccc(-c3ncccc3C(F)(F)F)cc2n1)C1CCCCC1 [Compound 383, [2-[(Cyclohexyl-ethyl-amino)-methyl]-7-(3-trifluoromethyl-pyridin-2-yl)-quinazolin-4-yl]-(6-trifluoromethyl-pyridin-3-yl)-amine]
9 | > 6.00 | COCCN(CCOC)Cc1nc(Nc2ccc(C(F)(F)F)nc2)c2ccc(-c3ncccc3C(F)(F)F)cc2n1 [Compound 384, [2-{[Bis-(2-methoxy-ethyl)-amino]-methyl}-7-(3-trifluoromethyl-pyridin-2-yl)-quinazolin-4-yl]-(6-trifluoromethyl-pyridin-3-yl)-amine]
10 | > 6.00 | CCCCCN(CCCCC)Cc1nc(Nc2ccc(C(F)(F)F)nc2)c2ccc(-c3ncccc3C(F)(F)F)cc2n1 [Compound 385, [2-Dipentylaminomethyl-7-(3-trifluoromethyl-pyridin-2-yl)-quinazolin-4-yl]-(6-trifluoromethyl-pyridin-3-yl)-amine]
11 | > 6.00 | CCCCCCN(CCCCCC)Cc1nc(Nc2ccc(C(F)(F)F)nc2)c2ccc(-c3ncccc3C(F)(F)F)cc2n1 [Compound 386, [2-Dihexylaminomethyl-7-(3-trifluoromethyl-pyridin-2-yl)-quinazolin-4-yl]-(6-trifluoromethyl-pyridin-3-yl)-amine]
12 | > 6.00 | CC1CC(C)CN(Cc2nc(Nc3ccc(C(F)(F)F)nc3)c3ccc(-c4ncccc4C(F)(F)F)cc3n2)C1 (stereo not drawn) [Compound 387, [2-(3,5-Dimethyl-piperidin-1-ylmethyl)-7-(3-trifluoromethyl-pyridin-2-y)-quinazolin-4-yl]-(6-trifluoromethyl-pyridin-3-yl)-amine]
13 | > 6.00 | CC(c1ccccc1)N(C)CCc1nc(Nc2ccc(C(F)(F)F)cc2)c2ccc(-c3ncccc3C(F)(F)F)cc2n1 (stereo not drawn) [Compound 388, [2-{2-[Methyl-(1-phenyl-ethyl)-amino]-ethyl}-7-(3-trifluoromethyl-pyridin-2-yl)-quinazolin-4-yl]-(4-trifluoromethyl-phenyl)-amine]
14 | > 6.00 | CN(CCc1nc(Nc2ccc(C(F)(F)F)cc2)c2ccc(-c3ncccc3C(F)(F)F)cc2n1)C1CCc2ccccc21 (stereo not drawn) [Compound 389, [2-[2-(Indan-1-yl-methyl-amino)-ethyl]-7-(3-trifluoromethyl-pyridin-2-yl)-quinazolin-4-yl]-(4-trifluoromethyl-phenyl)-amine]
15 | > 6.00 | CCC(c1ccccc1)N(C)CCc1nc(Nc2ccc(C(F)(F)F)cc2)c2ccc(-c3ncccc3C(F)(F)F)cc2n1 (stereo not drawn) [Compound 390, [2-{2-[Methyl-(1-phenyl-propyl)-amino]-ethyl}-7-(3-trifluoromethyl-pyridin-2-yl)-quinazolin-4-yl]-(4-trifluoromethyl-phenyl)-amine]
16 | > 6.00 | CC1c2ccccc2CCN1CCc1nc(Nc2ccc(C(F)(F)F)cc2)c2ccc(-c3ncccc3C(F)(F)F)cc2n1 (stereo not drawn) [Compound 391, [2-[2-(1-Methyl-3,4-dihydro-1H-isoquinolin-2-yl)-ethyl]-7-(3-trifluoromethyl-pyridin-2-yl)-quinazolin-4-yl]-(4-trifluoromethyl-phenyl)-amine]
17 | > 6.00 | CN(CCc1nc(Nc2ccc(C(F)(F)F)cc2)c2ccc(-c3ncccc3C(F)(F)F)cc2n1)Cc1ccccc1 [Compound 392, [2-[2-(Benzyl-methyl-amino)-ethyl]-7-(3-trifluoromethyl-pyridin-2-yl)-quinazolin-4-yl]-(4-trifluoromethyl-phenyl)-amine]
18 | > 6.00 | FC(F)(F)c1ccc(Nc2nc(CCN3CCc4ccccc4C3)nc3cc(-c4ncccc4C(F)(F)F)ccc23)cc1 [Compound 393, [2-[2-(3,4-Dihydro-1H-isoquinolin-2-yl)-ethyl]-7-(3-trifluoromethyl-pyridin-2-yl)-quinazolin-4-yl]-(4-trifluoromethyl-phenyl)-amine]
19 | > 6.00 | CN(CCc1nc(Nc2ccc(C(F)(F)F)cc2)c2ccc(-c3ncccc3C(F)(F)F)cc2n1)Cc1cccc(F)c1 [Compound 394, [2-{2-[(3-Fluoro-benzyl)-methyl-amino]-ethyl}-7-(3-trifluoromethyl-pyridin-2-yl)-quinazolin-4-yl]-(4-trifluoromethyl-phenyl)-amine]
20 | > 6.00 | Cc1ccccc1CN(C)CCc1nc(Nc2ccc(C(F)(F)F)cc2)c2ccc(-c3ncccc3C(F)(F)F)cc2n1 [Compound 395, [2-{2-[Methyl-(2-methyl-benzyl)-amino]-ethyl}-7-(3-trifluoromethyl-pyridin-2-yl)-quinazolin-4-yl]-(4-trifluoromethyl-phenyl)-amine]
21 | > 6.00 | CN(CCc1nc(Nc2ccc(C(F)(F)F)cc2)c2ccc(-c3ncccc3C(F)(F)F)cc2n1)Cc1ccccc1F [Compound 396, [2-{2-[(2-Fluoro-benzyl)-methyl-amino]-ethyl}-7-(3-trifluoromethyl-pyridin-2-yl)-quinazolin-4-yl]-(4-trifluoromethyl-phenyl)-amine]
22 | > 6.00 | FC(F)(F)c1ccc(Nc2nc(CCN(Cc3ccccc3)C3CC3)nc3cc(-c4ncccc4C(F)(F)F)ccc23)cc1 [Compound 397, [2-[2-(Benzyl-cyclopropyl-amino)-ethyl]-7-(3-trifluoromethyl-pyridin-2-yl)-quinazolin-4-yl]-(4-trifluoromethyl-phenyl)-amine]
23 | > 6.00 | CN(CCc1ccccc1)CCc1nc(Nc2ccc(C(F)(F)F)cc2)c2ccc(-c3ncccc3C(F)(F)F)cc2n1 [Compound 398, [2-[2-(Methyl-phenethyl-amino)-ethyl]-7-(3-trifluoromethyl-pyridin-2-yl)-quinazolin-4-yl]-(4-trifluoromethyl-phenyl)-amine]
24 | > 6.00 | FC(F)(F)c1ccc(Nc2nc(CCN3CCCCC3)nc3cc(-c4ncccc4C(F)(F)F)ccc23)cc1 [Compound 399, [2-Piperidin-1-ylethyl-7-(3-trifluoromethyl-pyridin-2-yl)-quinazolin-4-yl]-(4-trifluoromethyl-phenyl)-amine]
25 | > 6.00 | FC(F)(F)c1ccc(Nc2nc(CCN3CCOCC3)nc3cc(-c4ncccc4C(F)(F)F)ccc23)cc1 [Compound 400, [2-Morpholin-4-ylethyl-7-(3-trifluoromethyl-pyridin-2-yl)-quinazolin-4-yl]-(4-trifluoromethyl-phenyl)-amine]
26 | > 6.00 | CC1CCN(CCc2nc(Nc3ccc(C(F)(F)F)cc3)c3ccc(-c4ncccc4C(F)(F)F)cc3n2)CC1 [Compound 401, [2-(4-Methyl-piperidin-1-ylethyl)-7-(3-trifluoromethyl-pyridin-2-yl)-quinazolin-4-yl]-(4-trifluoromethyl-phenyl)-amine]
27 | > 6.00 | FC(F)(F)c1ccc(Nc2nc(CCN3CCCCCC3)nc3cc(-c4ncccc4C(F)(F)F)ccc23)cc1 [Compound 402]
28 | > 6.00 | FC(F)(F)c1ccc(Nc2nc(CCN3CCSCC3)nc3cc(-c4ncccc4C(F)(F)F)ccc23)cc1 [Compound 403, [2-Thiomorpholin-4-ylethyl-7-(3-trifluoromethyl-pyridin-2-yl)-quinazolin-4-yl]-(4-trifluoromethyl-phenyl)-amine]
29 | > 6.00 | CC1(C)CCCN(CCc2nc(Nc3ccc(C(F)(F)F)cc3)c3ccc(-c4ncccc4C(F)(F)F)cc3n2)C1 [Compound 404, [2-(3,3-Dimethyl-piperidin-1-ylethyl)-7-(3-trifluoromethyl-pyridin-2-yl)-quinazolin-4-yl]-(4-trifluoromethyl-phenyl)-amine]
30 | > 6.00 | FC(F)(F)c1ccc(Nc2nc(CCN3CCCCCCC3)nc3cc(-c4ncccc4C(F)(F)F)ccc23)cc1 [Compound 405, [2-Azocan-1-ylethyl-7-(3-trifluoromethyl-pyridin-2-yl)-quinazolin-4-yl]-(4-trifluoromethyl-phenyl)-amine]
